Assay results taken from PubChem BioAssay (NCI).
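48-hour exposure; five concentrations; linearly interpolated endpoints. TGI denotes the concentration required for complete inhibition of growth.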

Key:
Experiment in all cases: NCI tumour cell line growth inhibition, 48 h
K-562 leukemia = tested on: K-562 leukemia
CAKI-1 renal = tested on: CAKI-1 renal
SNB-19 CNS = tested on: SNB-19 CNS
M14 melanoma = tested on: M14 melanoma
OVCAR-4 ovarian = tested on: OVCAR-4 ovarian
NCI-H226 lung = tested on: NCI-H226 lung
HT29 colon = tested on: HT29 colon
LOX IMVI melanoma = tested on: LOX IMVI melanoma
RXF-631 renal = tested on: RXF-631 renal
SNB-75 CNS = tested on: SNB-75 CNS
UACC-62 melanoma = tested on: UACC-62 melanoma
HCC-2998 colon = tested on: HCC-2998 colon
SN12C renal = tested on: SN12C renal
OVCAR-3 ovarian = tested on: OVCAR-3 ovarian
SF-539 CNS = tested on: SF-539 CNS
EKVX NSCLC = tested on: EKVX NSCLC
SW-620 colon = tested on: SW-620 colon
M19-MEL melanoma = tested on: M19-MEL melanoma
MALME-3M melanoma = tested on: MALME-3M melanoma
HCT-116 colon = tested on: HCT-116 colon
HOP-92 NSCLC = tested on: HOP-92 NSCLC
RXF 393 renal = tested on: RXF 393 renal
SK-OV-3 ovarian = tested on: SK-OV-3 ovarian
786-0 renal = tested on: 786-0 renal
ACHN renal = tested on: ACHN renal
NCI-H23 lung = tested on: NCI-H23 lung
HOP-62 NSCLC = tested on: HOP-62 NSCLC
A549 NSCLC = tested on: A549 NSCLC
DMS 114 small cell lung = tested on: DMS 114 small cell lung
SK-MEL-2 melanoma = tested on: SK-MEL-2 melanoma
SF-295 CNS = tested on: SF-295 CNS
UACC-257 melanoma = tested on: UACC-257 melanoma
SK-MEL-28 melanoma = tested on: SK-MEL-28 melanoma
XF 498 CNS = tested on: XF 498 CNS
DLD-1 colon = tested on: DLD-1 colon
IGROV1 ovarian = tested on: IGROV1 ovarian
LXFL 529 NSCLC = tested on: LXFL 529 NSCLC
SF-268 CNS = tested on: SF-268 CNS
COLO 205 colon = tested on: COLO 205 colon
TK-10 renal = tested on: TK-10 renal
RPMI-8226 leukemia = tested on: RPMI-8226 leukemia
KM20L2 colon = tested on: KM20L2 colon
NCI-H522 lung = tested on: NCI-H522 lung

Measured: TGI

NC(N)=N/N=C(/CCN1CCCC1)CC(c1ccccc1)c1c(O)c2ccccc2oc1=O (stereo not drawn)
> 100 µM: all assays above
